Converted amounts (≈) assume the structure as drawn. Where two headings read alike, the source gives them in different places.
Columns and labels:
[1] = test system: PNT2 prostate epithelial cells; assay: LDH cytotoxicity assay, PNT2 cells; assay type: cell-based, human; details: for mean percentage of dead PNT2 cells: 10 μg/mL, 24 h of incubation; for IC50: Homo sapiens, PNT2 normal prostate epithelial cells, LDH assay
From the text: (§1) In the study, […] human cancer and normal cell lines were used. They were grouped as follows: prostate panel (prostate carcinoma Du145, derived from the metastatic site: brain, ATCC HTB-81; grade IV prostate carcinoma, PC3, derived from the metastatic site: bone, ATCC CRL-1435; prostate epithelial cells PNT2, ECACC 95012613), gastrointestinal panel (colorectal adenocarcinomas Caco2, ATCC HTB-37, and HT29, ATCC HTB-38; hepatocellular carcinoma HepG2, ATCC HB-8065), thyroid panel (follicular thyroid carcinoma FTC133, ECACC 94060901; undifferentiated thyroid carcinoma 8505C, ECACC 94090184). Cells were grown at 37 °C in a 5% CO2 atmosphere, with relative humidity, with culture medium DMEM/F12 (PC3, PNT2, FTC133, 8505C, HT29, and HepG2), DMEM low glucose (Du145), MEM with NEAA (Caco-2), supplemented with 10% fetal bovine serum (FBS), and appropriate antibiotics. Cells were seeded in 96-well plates (1.5 × 10^4 cells/well) and kept for 24 and 48 h. Subsequently, the culture medium was replaced with a fresh medium containing different concentrations of the tested substances from 4 to 50 µg/mL and the cells were incubated for 24 and 48 h. As a reference drug, doxorubicin was used. Cell viability was examined using the LDH assay, as previously described. The absorbance was measured at 490 nm (the reference wavelength 600 nm) with a Biotek Synergy microplate reader. Each experiment was performed in triplicate. Cytotoxicity of the samples was measured using the formula: %cytotoxicity=Asample−Aspont/Amax−Aspont×100 where: • Asample is the absorbance value for cells treated with the tested substances • Aspont is the value for spontaneous LDH release • Amax the value in cells lysed in the presence of Triton X100 • The half-maximal effective concentration value IC50, defined as the substance concentration necessary to obtain 50% of dead cells, was determined.
(§2) In the study evaluating optimization extraction conditions, the outlying values of rapanone amount in each set of parameters were removed. Thirty-two outlier values were determined using “Extreme Outlier” software (MP System Co., Kraków, Poland), with an algorithm implemented by Shoemaker and based on a robust technique proposed by Tukey. The ANOVA procedure was used to assess the impact of changing individual parameters on the amount of rapanone obtained in various extraction systems. The same statistical procedure was used to determine the regression coefficients of the primary parameters in the respective multinomial models (describing the relationship between the amount of rapanone and the experimental conditions) and to establish the statistical significance of these coefficients. […] The results with the highest number of differences were chosen as representing the combinations of parameters, (i.e., the particular variants of experimental systems), that were used giving the highest efficacy of the extraction process. IC50 values in cytotoxicity analysis were estimated using GraphPad 5 Prism. A comparison of the means in a cytotoxicity analysis was performed using one-way ANOVA followed by a posthoc Tukey test.

[2] = test system: Du145 prostate carcinoma; assay: LDH cytotoxicity assay, Du145 cells; assay type: cell-based, human; details: for mean percentage of dead Du145 cells: 10 μg/mL, 24 h of incubation; for IC50: Homo sapiens, DU-145, LDH assay
From the text: as §1, §2

[3] = test system: HT29 colorectal adenocarcinoma; assay: LDH cytotoxicity assay, HT29 cells; assay type: cell-based; details: Homo sapiens
From the text: as §1, §2

[4] = test system: PC3 grade IV prostate carcinoma; assay: LDH cytotoxicity assay, PC3 cells; assay type: cell-based; details: Homo sapiens
From the text: as §1, §2

[5] = test system: undifferentiated thyroid carcinoma 8505C; assay: LDH cytotoxicity assay, 8505C cells; assay type: cell-based; details: Homo sapiens
From the text: as §1, §2

[6] = test system: PC3; details: cited from earlier work
[7] = test system: Caco-2 colorectal adenocarcinoma; assay: LDH cytotoxicity assay, Caco-2 cells; assay type: cell-based, human; details: for IC50: Homo sapiens
From the text: as §1, §2

[8] = test system: Du145; set-up: method as in earlier work; details: castration-resistant prostate cancer cells Du145; read-out: IC50 inhibition of proliferation, Du145; cited from earlier work
[9] = set-up: method as in PMID 26252009; details: EZ-CyTox kit, cell line not stated, cited from earlier work
[10] = test system: HT29 cells; details: cited from earlier work
[11] = test system: follicular thyroid carcinoma FTC133; assay: LDH cytotoxicity assay, FTC133 cells; assay type: cell-based; details: Homo sapiens
From the text: as §1
(§3) In the study evaluating optimization extraction conditions, the outlying values of rapanone amount in each set of parameters were removed. Thirty-two outlier values were determined using “Extreme Outlier” software (MP System Co., Kraków, Poland), with an algorithm implemented by Shoemaker and based on a robust technique proposed by Tukey. The ANOVA procedure was used to assess the impact of changing individual parameters on the amount of rapanone obtained in various extraction systems. The same statistical procedure was used to determine the regression coefficients of the primary parameters in the respective multinomial models (describing the relationship between the amount of rapanone and the experimental conditions) and to establish the statistical significance of these coefficients. […]

[12] = test system: HepG2 hepatocellular carcinoma; assay: LDH cytotoxicity assay, HepG2 cells; assay type: cell-based; details: Homo sapiens
From the text: as §1, §3

[13] = 24 h incubation, read-out: IC50 PNT2 24 h
[14] = Du145, 24 h incubation, read-out: IC50 Du145 24 h
[15] = HT-29, HT29, 24 h incubation, read-out: IC50 HT29 24 h
[16] = PC-3, PC3, 24 h incubation, read-out: IC50 PC3 24 h
[17] = 24 h incubation, read-out: IC50 8505C 24 h
[18] = Caco-2, 24 h, Caco-2, 24 h incubation, read-out: IC50 Caco-2 24 h
[19] = 48 h incubation, read-out: IC50 PNT2 48 h
[20] = Du145, 48 h incubation, read-out: IC50 Du145 48 h
[21] = HT-29, HT29, 48 h incubation, read-out: IC50 HT29 48 h
[22] = PC-3, PC3, 48 h incubation, read-out: IC50 PC3 48 h
[23] = FTC-133, FTC133, 24 h incubation, read-out: IC50 FTC133 24 h
[24] = FTC-133, FTC133, 48 h incubation, read-out: IC50 FTC133 48 h
[25] = 48 h incubation, read-out: IC50 8505C 48 h
[26] = Caco-2, 48 h, Caco-2, 48 h incubation, read-out: IC50 Caco-2 48 h
[27] = HepG2, 24 h incubation, read-out: IC50 HepG2 24 h
[28] = HepG2, 48 h incubation, read-out: IC50 HepG2 48 h

| Structure (SMILES) | mean percentage of dead PNT2 cells [1] [%] | IC50 [1, 13] [µg/mL] | mean percentage of dead Du145 cells [2] [%] | IC50 [2, 14] [µg/mL] | IC50 [3, 15] [µg/mL] | IC50 [4, 16] [µg/mL] | IC50 [5, 17] [µg/mL] | IC50 [7, 18] [µg/mL] | IC50 [1, 19] [µg/mL] | IC50 [2, 20] [µg/mL] | IC50 [3, 21] [µg/mL] | IC50 [4, 22] [µg/mL] | IC50 [11, 23] [µg/mL] | IC50 [11, 24] [µg/mL] | IC50 [5, 25] [µg/mL] | IC50 [7, 26] [µg/mL] | IC50 [12, 27] [µg/mL] | IC50 [12, 28] [µg/mL] | also measured |
| --- | --- | --- | --- | --- | --- | --- | --- | --- | --- | --- | --- | --- | --- | --- | --- | --- | --- | --- | --- |
| COc1cccc2c1C(=O)c1c(O)c3c(c(O)c1C2=O)C[C@@](O)(C(=O)CO)C[C@@H]3O[C@H]1C[C@H](N)[C@H](O)[C@H](C)O1 [Doxorubicin] | 99.21 | 1.38 | 88.38 | 3.18 | 1.53 | > 50 | > 40 | 3.44 | – | – | – | – | – | – | – | – | – | – | times lower activity towards PC3 than towards Du145 ([6]; doxorubicin, PC3 vs Du145): about 20 |
| CCCCCCCCCCCC1=C(O)C(=O)C=C(O)C1=O [Embelin] | 49.00 | 10.1 | 61.67 | 8.02 | 24.7 | 9.27 | 18.9 | 6.12 | 4.61 | 4.18 | 13.7 | 5.24 | 10.5 | 6.48 | 13.8 | 3.37 | 16 | 6.77 | IC50 [8]: 21.3 µM; IC50 ([9]; 24 h, read-out: IC50 after 24 h (Park et al.)): > 200 µM; IC50 ([9]; 48 h, read-out: IC50 after 48 h (Park et al.)): 91.6 µM; IC50 in HT29 cells (Sumalatha) ([10]; HT29): 35 µg/mL (≈ 119 µM); IC50 ([6]; castration-resistant prostate cancer cells PC3, read-out: IC50 inhibition of proliferation, PC3): 13.6 µM |
| CCCCCCCCCCCCCC1=C(O)C(=O)C=C(O)C1=O [Rapanone] | 9.30 | 16.7 | 82.33 | 7.68 | 16.9 | 6.5 | 7.84 | 8.76 | 12.7 | 5.07 | 11.7 | 4.92 | 6.01 | 4.42 | 5.5 | 5.66 | 36.3 | 16.7 | IC50 reported by Cordero et al., converted ([10]; HT29 (by context), 29.4 μM converted to μg/mL): 9.3 µg/mL (≈ 28.8 µM); IC50 ([10]; HT29 (by context), read-out: IC50 reported by Cordero et al.): 29.4 µM; IC50 Caco-2 24 h ([7]; Caco-2, 24 h incubation): 8.79 µg/mL |
